# Laboratory results as given in patent publication US20250000888A1, “METHODS OF TREATING MYELODYSPLASTIC SYNDROMES WITH DECITABINE AND CEDAZURIDINE” (priority 2021, published 2025).
# Like-named read-outs stand apart in the source and are kept apart here.
# Assays:
# [1] = system: patients with MDS or CMML
# Procedure: Each treatment was given for the first 5 consecutive days of a 28-day cycle. […] Consistent with standard clinical care with parenteral DNMTi, cycles could be delayed or doses reduced if judged necessary for hematologic or nonhematologic recovery.
# Efficacy and safety endpoints were calculated using all data through final cutoff.
# MDS patients [2] = details: cited from earlier work; for Median survival: previous reports in clinical trials; for Overall response rate: reported in clinical studies
# [3] = system: LINE-1 (long interspersed nuclear element-1) methylation; assay: Phase 3 trial pharmacodynamics: DNA demethylation by % LINE-1 methylation analysis; type: in vivo, human
# [4] = system: intermediate or high-risk MDS patients age 60 or older; details: low-dose decitabine IV; BSC 8.5; cited from earlier work
# [5] = Phase 3 randomized crossover trial: decitabine total exposure over 5 days (AUC) and plasma pharmacokinetics; type: in vivo, human; details: for AUC(0-t): human, plasma, intravenous, 20 mg/m^2/d, read-out: 5-Day Decitabine AUC0-24 LSM
# Text: A total of 118 patients was planned for this analysis to provide 90% power at the statistical significance level of 0.05, presuming the true ratio of geometric means is 1.0, the intrapatient coefficient of variation (CV) on an unlogged scale is 0.55, and the 90% confidence interval (CI) equivalence limits for the ratio of geometric means are 0.8 and 1.25. Assuming that 10% of patients would not be evaluable, 132 patients were planned to be randomized.
# At least one of either day 1 or 5 decitabine AUC0-24 measurement during the IV decitabine cycle was required to be evaluable. […] Descriptive statistics were calculated for pharmacokinetic values.
# Effects of the sequence and cycle were evaluated.
# MDS patients [6] = details: intention-to-treat; 15 mg/m^2 IV over 3 hours, every 8 hours for 3 days; BSC 14.9; cited from earlier work
# patients with MDS = details: BSC arm 12; cited from earlier work
compound,measurement,setting,value
"Nc1ncn([C@H]2C[C@H](O)[C@@H](CO)O2)c(=O)n1 [IV decitabine, 5-aza-2′-deoxycytidine]","Grade ≥3 TEAE Anemia, %",[1]; Cycles 1 and 2,(32) %
same,"Grade ≥3 TEAE Febrile neutropenia, %",[1]; Cycles 1 and 2,(7) %
same,"Grade ≥3 TEAE Leukopenia, %",[1]; Cycles 1 and 2,(14) %
same,"Grade ≥3 TEAE Neutropenia, %",[1]; Cycles 1 and 2,(29) %
same,"Grade ≥3 TEAE Pneumonia, %",[1]; Cycles 1 and 2,(5) %
same,"Grade ≥3 TEAE Thrombocytopenia, %",[1]; Cycles 1 and 2,(32) %
same,"≥1 Grade ≥3 TEAE regardless of relation to treatment, %",[1]; Cycles 1 and 2,(67) %
same,"≥1 TEAE regardless of relation to treatment, %",[1]; Cycles 1 and 2,96%
same,"TEAE Anemia, %","[1]; Cycles 1 and 2, any grade",(36) %
same,"TEAE Constipation, %","[1]; Cycles 1 and 2, any grade",(20) %
same,"TEAE Decreased appetite, %","[1]; Cycles 1 and 2, any grade",(5) %
same,"TEAE Diarrhea, %","[1]; Cycles 1 and 2, any grade",(11) %
same,"TEAE Dyspnea, %","[1]; Cycles 1 and 2, any grade",(10) %
same,"TEAE Fatigue, %","[1]; Cycles 1 and 2, any grade",(17) %
same,"TEAE Febrile neutropenia, %","[1]; Cycles 1 and 2, any grade",(7) %
same,"TEAE Headache, %","[1]; Cycles 1 and 2, any grade",(14) %
same,"TEAE Nausea, %","[1]; Cycles 1 and 2, any grade",(17) %
same,"TEAE Neutropenia, %","[1]; Cycles 1 and 2, any grade",(34) %
same,"TEAE Thrombocytopenia, %","[1]; Cycles 1 and 2, any grade",(39) %
same,"≥1 TEAE regardless of relation to treatment, %","[1]; Cycles 1 and 2, listed as IV Decitabine",(96) %
same,"Treatment-related serious AE rate, recalculated","[1]; first 2 cycles, one AE reassigned to IV decitabine given in cycle 1",4%
same,Patients reporting ≥1 treatment-related serious AE,[1]; first 2 treatment cycles,3%
same,Treatment discontinuation due to an AE,[1]; first 2 treatment cycles,1 patient
same,Deaths deemed related to study medication,"[1]; of 11 fatal serious AEs, oral: sepsis and pneumonia, IV: septic shock, pneumonia",three
same,Median survival,MDS patients [2],14.0-19.4 months
same,Overall response rate,MDS patients [2],32%
same,Max. % LINE-1 Demethylation LSM,[3]; Cycle 1,14.019%
same,Max. % LINE-1 Demethylation LSM,[3]; Cycle 2,11.968%
same,Overall survival (OS),[4],10.1 months
same,"Peak concentrations, IV vs oral administration",[5]; FIG. 2A,higher after IV vs oral
same,Time at which peak decitabine plasma concentrations were detected,"[5]; after oral and IV therapy, except day 5 IV",1 h
same,Time at which peak decitabine plasma concentrations were attained,[5]; day 5 after IV treatment,30 min
same,AUC(0-t),"[5]; Primary endpoint, paired, cycles 1 and 2",865 ng·h/mL
same,AUC(0-t),"[5]; Sensitivity, paired, includes data excluded from primary endpoint",870 ng·h/mL
same,AUC(0-t),"[5]; Sensitivity, unpaired",866 ng·h/mL
same,Time plasma concentrations remained above the lower limit of quantification,[5]; in most patients,up to 4 hours
same,Median survival,MDS patients [6],14.0 months
"Nc1ncn([C@@H]2O[C@H](CO)[C@@H](O)[C@H]2O)c(=O)n1 [azacitidine, 5-azacytidine]",Median survival,MDS patients [2],12.0-24.5 months
same,Overall response rate,MDS patients [2],44%-60%
same,Median time to leukemic transformation or death,patients with MDS,21 months
